Measurements as given in patent publication US20240016784A1, “Y BOX BINDING PROTEIN 1 INHIBITORS” (Oregon Health & Science University, priority 2020, published 2024).

How the values were obtained:
[1] = test system: efflux of paclitaxel in OC cells; assay: Paclitaxel efflux assay; format: cell-based; conditions: SU056 co-treatment vs only paclitaxel-treated cells
Text: YB-1 is involved in the emergence of cisplatin and taxane drug resistance (Kang et al., 2013, Mo et al., 2016). Therefore, we tested whether SU056 synergizes with chemotherapies such as paclitaxel to modulate YB-1. To measure this, we performed a dose dependent combination study of SU056 and paclitaxel. […] ABCB1/MDR1 drug efflux pumps are also known to play an important downstream role with YB-1 in increased taxol efflux and subsequent TR in cancer. To evaluate whether SU056 affects drug efflux, we used Alexa Fluor-488-tagged paclitaxel to measure taxol efflux in vitro. […] Efflux is primarily driven by the ATP-binding cassette transporters (ABC pumps) present on the cell surface (Genovese et al., 2017). We examined the expression of MDR1 and YB-1 in OVCAR8 cells treated with vehicle, SU056, and paclitaxel combinations via Western blot.
Paclitaxel efflux assay: OC cells were treated with 5 nM Oregon Green™ 488-conjugated paclitaxel (Molecular Probes, #P22310) for 1 h. Cells were washed and incubated in phenol red-free DMEM media supplemented with 10% FBS. After each respective time point (30, 60, 120, 180 minutes), the media was collected and centrifuged to remove floating cells. The fluorescence intensity of efflux paclitaxel in media was read at Ex 496 and Em 524 using a multimode plate reader.
Combination index values for paclitaxel and SU056. […] FIG. 7C) Immunoblotting of YB-1 and MDR1. […]

[2] = test system: Multidrug resistance 1 (MDR1, ABC pump mediated efflux); assay: Multidrug Resistance Assay (fluorometric MDR assay); format: cell-based; conditions: 2.5 μM for 12 h; six different OC cell lines
Description: Out of six targets identified, we selected proteins whose thermal shift is above 5° in the presence of SU056 for further study of protein expression after treatment. […] To study the in vivo effects of SU056 treatment, we analyzed ID8 tumor xenograft samples via immunohistochemistry (IHC). […] To identify the broader effects of SU056 on YB-1 and its downstream protein/activity in different ovarian cancer cell lines, we selected six different cell lines and treated them with SU056 (2.5 μM) for 12 h. Cells were analyzed for YB-1 and CD44 expression and Multidrug resistance 1 (MDR1, ABC pump mediated efflux). […] Finally, we tested the time kinetics and dose-dependent effects of SU056 on YB-1 expression. OVCAR4, OVCAR8, and SKOV3 cells were treated with SU056 (1, 2.5, and 5 μM) for 3, 6, 12, and 24 h and YB-1 expression was measured using YB-1 ELISA. […] 5 μM treatment for 24 h inhibited YB-1 completely (100%) in all three OC cells (FIG. 4E). […]
(§1) FIGS. 4A-4E: SU056 inhibits YB-1. […] FIG. 4C) Respective OC cells were treated with 2.5 μM SU056 for 12 h and YB-1 & CD44 expression and multidrug resistance activity was measured as described in the ‘method’ section. The % inhibition was calculated and compared to the control for the respective cell line. […]

[3] = test system: MDA-MB-231, MDA-MB-468 and SUT1151-PDX xenografts; assay: Tumor xenografts of TNBC models; format: in vivo, Mice; conditions: SU056 50 mg/kg, oral gavage
Description: FIGS. 13A-13I. […] Mice were subcutaneously injected with MDA-MB-231 (2×10^6 cells), MDA-MB-468 (5×10^6 cells) and patient derived xenograft SUT1151-PDX (2×10^6 cells) and drug treatment started when tumor reached 100 mm^3. Mice were given either vehicle (40% PEG in saline) or SU056 (50 mg/kg) through oral route using oral gavage. FIG. 13A) Tumor volume (MDA-MB-231) as a function of time. FIG. 13B) Tumor weight (MDA-MB-231) at the end of the study. FIG. 13C) Body weight (MDA-MB-231) as a function of time. FIG. 13D) Tumor volume (MDA-MB-468) as a function of time. FIG. 13E) Tumor weight (MDA-MB-468) at the end of the study. FIG. 13F) Body weight (MDA-MB-468) as a function of time. FIG. 13G) Representative images of tumor (MDA-MB-231) at the end of study. FIG. 13H) Representative images of tumor (MDA-MB-468) at the end of study. FIG. 13I) Tumor volume (SUT1151-PDX) as a function of time. FIG. 13B) Tumor weight (SUT1151-PDX) at the end of the study. FIG. 13C) Body weight (SUT1151-PDX) as a function of time.

[4] = test system: YB-1, TMSB10, SUMO2 and PMSB2 proteins; assay: Western blot of CETSA targets in OVCAR8 cells; format: cell-based, human; conditions: 1, 2.5 and 5 μM for 12 h
Description: Out of six targets identified, we selected proteins whose thermal shift is above 5° in the presence of SU056 for further study of protein expression after treatment. […] To study the in vivo effects of SU056 treatment, we analyzed ID8 tumor xenograft samples via immunohistochemistry (IHC). […] To identify the broader effects of SU056 on YB-1 and its downstream protein/activity in different ovarian cancer cell lines, we selected six different cell lines and treated them with SU056 (2.5 μM) for 12 h. Cells were analyzed for YB-1 and CD44 expression and Multidrug resistance 1 (MDR1, ABC pump mediated efflux). […] OVCAR4, OVCAR8, and SKOV3 cells were treated with SU056 (1, 2.5, and 5 μM) for 3, 6, 12, and 24 h and YB-1 expression was measured using YB-1 ELISA. […]
Immunoblotting: Once 70% confluency of OC cells plated in 100 mm cell culture was obtained, dishes were treated with a respective concentration of SU056 for a respective time. […] Proteins were detected using Immobilon® Crescendo Western HRP Substrate (Millipore, Germany) and visualized on an IVIS Lumina Imaging System (Perkin Elmer, Waltham, MA).
FIGS. 4A-4E: SU056 inhibits YB-1. […] FIG. 4C) Respective OC cells were treated with 2.5 μM SU056 for 12 h and YB-1 & CD44 expression and multidrug resistance activity was measured as described in the ‘method’ section. […]

YB-1 = YB-1 expression in six ovarian cancer cell lines; format: cell-based; conditions: 2.5 μM for 12 h; six different OC cell lines
Description: Out of six targets identified, we selected proteins whose thermal shift is above 5° in the presence of SU056 for further study of protein expression after treatment. […] To study the in vivo effects of SU056 treatment, we analyzed ID8 tumor xenograft samples via immunohistochemistry (IHC). […] To identify the broader effects of SU056 on YB-1 and its downstream protein/activity in different ovarian cancer cell lines, we selected six different cell lines and treated them with SU056 (2.5 μM) for 12 h. Cells were analyzed for YB-1 and CD44 expression and Multidrug resistance 1 (MDR1, ABC pump mediated efflux). […] Finally, we tested the time kinetics and dose-dependent effects of SU056 on YB-1 expression. OVCAR4, OVCAR8, and SKOV3 cells were treated with SU056 (1, 2.5, and 5 μM) for 3, 6, 12, and 24 h and YB-1 expression was measured using YB-1 ELISA. […]
Total YB-1 sandwich ELISA: Total YB-1 protein level was analyzed using PathScan® Total YB1 Sandwich ELISA Kit (Cell Signaling, #12543) by following the manufacturer's protocol.
as §1

## O=C1OCC2=C1C(c1cccc(F)c1)c1cc3c(cc1N2CCO)OCO3 (centres unmarked) [SU056, 9-(3-fluorophenyl)-5-(2-hydroxyethyl)-6,9-dihydro-[1,3]dioxolo[4,5-g]furo[3,4-b]quinolin-8(5H)-one]
[1]
  efflux of Alexa Fluor-488-tagged paclitaxel: significantly inhibits the efflux of paclitaxel
[2]
  decrease in MDR expression: 41-63%
[3]
  tumor xenograft growth, TNBC models: inhibit tumor xenograft of TNBC models
[4]
  protein expression by Western blot: inhibits the YB-1, TMSB10, SUMO2 and PMSB2 proteins in a dose-dependent manner
YB-1
  inhibition of YB-1 expression: 28-56%
